According to article PMC10504751, “Chalcone/1,3,4-Oxadiazole/Benzimidazole hybrids as novel anti-proliferative agents inducing apoptosis and inhibiting EGFR & BRAFV^600E” (BMC Chemistry, 2023):
Read-outs that look alike come from different tables or passages of the source.

What was measured:
Assay in all cases: NCI one-dose SRB anti-proliferative screen
Type in all cases: cell-based
TK-10 = details: Homo sapiens, read-out: Cell growth inhibition %
Outline: (§1)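 Single 10 µM dose tested by NCI in its 60-cell-line panel covering nine tumour subpanels. Anti-proliferative activity was read by Sulforhodamine B colorimetric staining.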

A498 = details: Homo sapiens, read-out: Cell growth inhibition %
Outline: as §1

SF-268 = details: Homo sapiens, read-out: Cell growth inhibition %
Outline: as §1

OVCAR-4 = details: Homo sapiens, read-out: Cell growth inhibition %
Outline: as §1

MDA-MB-231/ATCC = details: Homo sapiens, read-out: Cell growth inhibition %
Outline: as §1

CAKI-1 = details: Homo sapiens, read-out: Cell growth inhibition %
Outline: as §1

KM12 = details: Homo sapiens, read-out: Cell growth inhibition %
Outline: as §1

HT29 = details: Homo sapiens, HT-29, read-out: Cell growth inhibition %
Outline: as §1

HL-60(TB) = details: Homo sapiens, read-out: Cell growth inhibition %
Outline: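 Activity reflects a single-point exposure at 10 µM, with cell mass determined by a sulforhodamine B dye assay.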

DU-145 = details: Homo sapiens, read-out: Cell growth inhibition %
Outline: as §1

HOP-92 = details: Homo sapiens, read-out: Cell growth inhibition %
Outline: as §1

NCI/ADR-RES = details: Homo sapiens, read-out: Cell growth inhibition %
Outline: as §1

SF-295 = details: Homo sapiens, read-out: Cell growth inhibition %
Outline: as §1

OVCAR-3 = details: Homo sapiens, read-out: Cell growth inhibition %
Outline: as §1

SR = details: Homo sapiens, read-out: Cell growth inhibition %
Outline: as §1

NCI-H23 = details: Homo sapiens, read-out: Cell growth inhibition %
Outline: as §1

U251 = details: Homo sapiens, U-251, read-out: Cell growth inhibition %
Outline: as §1

NCI-H460 = details: Homo sapiens, read-out: Cell growth inhibition %
Outline: as §1

NCI-H226 = details: Homo sapiens, read-out: Cell growth inhibition %
Outline: as §1

SW-620 = details: Homo sapiens, read-out: Cell growth inhibition %
Outline: as §1

SNB-19 = details: Homo sapiens, read-out: Cell growth inhibition %
Outline: as §1

NCI-H322M = details: Homo sapiens, read-out: Cell growth inhibition %
Outline: as §1

SK-MEL-5 = details: Homo sapiens, read-out: Cell growth inhibition %
Outline: as §1

ACHN = details: Homo sapiens, read-out: Cell growth inhibition %
Outline: as §1

786-0 = details: Homo sapiens, read-out: Cell growth inhibition %
Outline: as §1

MDA-MB-468 = details: Homo sapiens, read-out: Cell growth inhibition %
Outline: as §1

SF-539 = details: Homo sapiens, read-out: Cell growth inhibition %
Outline: as §1

LOX IMVI = details: Homo sapiens, read-out: Cell growth inhibition %
Outline: as §1

HCC-2998 = details: Homo sapiens, read-out: Cell growth inhibition %
Outline: as §1

Q: `O=C(CSc1nnc(-c2ccc3[nH]c(-c4ccc(Cl)cc4)nc3c2)o1)Nc1ccc(C(=O)/C=C/c2ccc(Cl)cc2)cc1` [Compound 7g, 2-{5-[2-(4-Chlorophenyl)-1 H-benzo[d]imidazol-5-yl]-1,3,4-oxadiazol-2-ylthio}-N-{4-[(E)-3-(4-chlorophenyl)acryloyl]phenyl}acetamide] was tested. Which inhibition at 10 µM (TK-10; TK-10 (Renal Cancer), NCI one dose 10 µM) did it give?
A: The inhibition at 10 µM was 0%.

Q: What about the inhibition at 10 µM (A498; A498 (Renal Cancer), NCI one dose 10 µM) of the same compound?
A: Its inhibition at 10 µM is 9.85%.

Q: What about the inhibition at 10 µM (SF-268; SF-268 (CNS Cancer), NCI one dose 10 µM) of the same compound?
A: The inhibition at 10 µM was 0.08%.

Q: And the inhibition at 10 µM (OVCAR-4; OVCAR-4 (Ovarian Cancer), NCI one dose 10 µM)?
A: Its inhibition at 10 µM is 0%.

Q: And the inhibition at 10 µM (MDA-MB-231/ATCC; MDA-MB-231/ATCC (Breast Cancer), NCI one dose 10 µM)?
A: The inhibition at 10 µM was 9.38%.

Q: And the inhibition at 10 µM (CAKI-1; CAKI-1 (Renal Cancer), NCI one dose 10 µM)?
A: The inhibition at 10 µM was 16.4%.

Q: And the inhibition at 10 µM (KM12; KM12 (Colon Cancer), NCI one dose 10 µM)?
A: Its inhibition at 10 µM is 0.67%.

Q: And the inhibition at 10 µM (HT29; HT29 (Colon Cancer), NCI one dose 10 µM)?
A: Its inhibition at 10 µM is 0%.

Q: What about the inhibition at 10 µM (HL-60(TB); HL-60(TB) (Leukemia), NCI one dose 10 µM) of the same compound?
A: Its inhibition at 10 µM is 14%.

Q: And the inhibition at 10 µM (DU-145; DU-145 (Prostate Cancer), NCI one dose 10 µM)?
A: The inhibition at 10 µM was 0%.

Q: What about the inhibition at 10 µM (HOP-92; HOP-92 (Non-Small Cell Lung Cancer), NCI one dose 10 µM) of the same compound?
A: The inhibition at 10 µM was 5.81%.

Q: And the inhibition at 10 µM (NCI/ADR-RES; NCI/ADR-RES (Ovarian Cancer), NCI one dose 10 µM)?
A: Its inhibition at 10 µM is 0%.

Q: What about the inhibition at 10 µM (SF-295; SF-295 (CNS Cancer), NCI one dose 10 µM) of the same compound?
A: Its inhibition at 10 µM is 7.04%.

Q: And the inhibition at 10 µM (OVCAR-3; OVCAR-3 (Ovarian Cancer), NCI one dose 10 µM)?
A: Its inhibition at 10 µM is 0%.

Q: What about the inhibition at 10 µM (SR; SR (Leukemia), NCI one dose 10 µM) of the same compound?
A: The inhibition at 10 µM was 50.2%.

Q: And the inhibition at 10 µM (NCI-H23; NCI-H23 (Non-Small Cell Lung Cancer), NCI one dose 10 µM)?
A: Its inhibition at 10 µM is 0%.

Q: And the inhibition at 10 µM (U251; U251 (CNS Cancer), NCI one dose 10 µM)?
A: Its inhibition at 10 µM is 17.8%.

Q: What about the inhibition at 10 µM (NCI-H460; NCI-H460 (Non-Small Cell Lung Cancer), NCI one dose 10 µM) of the same compound?
A: The inhibition at 10 µM was 0%.

Q: What about the inhibition at 10 µM (NCI-H226; NCI-H226 (Non-Small Cell Lung Cancer), NCI one dose 10 µM) of the same compound?
A: Its inhibition at 10 µM is 14%.

Q: What about the inhibition at 10 µM (SW-620; SW-620 (Colon Cancer), NCI one dose 10 µM) of the same compound?
A: The inhibition at 10 µM was 0%.

Q: And the inhibition at 10 µM (SNB-19; SNB-19 (CNS Cancer), NCI one dose 10 µM)?
A: Its inhibition at 10 µM is 0.54%.

Q: And the inhibition at 10 µM (NCI-H322M; NCI-H322M (Non-Small Cell Lung Cancer), NCI one dose 10 µM)?
A: Its inhibition at 10 µM is 4.64%.

Q: And the inhibition at 10 µM (SK-MEL-5; SK-MEL-5 (Melanoma), NCI one dose 10 µM)?
A: The inhibition at 10 µM was 6.32%.

Q: And the inhibition at 10 µM (ACHN; ACHN (Renal Cancer), NCI one dose 10 µM)?
A: Its inhibition at 10 µM is 1.98%.

Q: What about the inhibition at 10 µM (786-0; 786-0 (Renal Cancer), NCI one dose 10 µM) of the same compound?
A: The inhibition at 10 µM was 7.38%.

Q: And the inhibition at 10 µM (MDA-MB-468; MDA-MB-468 (Breast Cancer), NCI one dose 10 µM)?
A: Its inhibition at 10 µM is 0%.

Q: And the inhibition at 10 µM (SF-539; SF-539 (CNS Cancer), NCI one dose 10 µM)?
A: The inhibition at 10 µM was 15.7%.

Q: What about the inhibition at 10 µM (LOX IMVI; LOX IMIV (Melanoma), NCI one dose 10 µM) of the same compound?
A: The inhibition at 10 µM was 124%.

Q: What about the inhibition at 10 µM (HCC-2998; HCC-2998 (Colon Cancer), NCI one dose 10 µM) of the same compound?
A: Its inhibition at 10 µM is 0%.

Q: `O=C(CSc1nnc(-c2ccc3[nH]c(-c4ccccc4)nc3c2)o1)Nc1ccc(C(=O)/C=C/c2ccccc2)cc1` [Compound 7a, 2-{5-[2-Phenyl-1 H-benzo[d]imidazol-5-yl]-1,3,4-oxadiazol-2-ylthio}-N-{4-[(E)-3-phenylacryloyl]phenyl}acetamide] was tested. Which inhibition at 10 µM (TK-10; TK-10, Renal cancer, NCI one dose) did it give?
A: The inhibition at 10 µM was 0%.

Q: And the inhibition at 10 µM (A498; A498, Renal cancer, NCI one dose)?
A: Its inhibition at 10 µM is 4.13%.

Q: What about the inhibition at 10 µM (SF-268; SF-268, CNS Cancer, NCI one dose) of the same compound?
A: Its inhibition at 10 µM is 0%.

Q: What about the inhibition at 10 µM (OVCAR-4; OVCAR-4, Ovarian Cancer, NCI one dose) of the same compound?
A: Its inhibition at 10 µM is 0%.

Q: And the inhibition at 10 µM (MDA-MB-231/ATCC; MDA-MB-231/ATCC, Breast cancer, NCI one dose)?
A: The inhibition at 10 µM was 0%.

Q: And the inhibition at 10 µM (CAKI-1; CAKI-1, Renal cancer, NCI one dose)?
A: The inhibition at 10 µM was 0%.

Q: What about the inhibition at 10 µM (KM12; KM12, Colon cancer, NCI one dose) of the same compound?
A: The inhibition at 10 µM was 0%.

Q: And the inhibition at 10 µM (HT29; HT29, Colon cancer, NCI one dose)?
A: The inhibition at 10 µM was 0%.

Q: And the inhibition at 10 µM (HL-60(TB); HL-60(TB), Leukemia, NCI one dose)?
A: Its inhibition at 10 µM is 0%.

Q: And the inhibition at 10 µM (DU-145; DU-145, Prostate Cancer, NCI one dose)?
A: Its inhibition at 10 µM is 0%.

Q: And the inhibition at 10 µM (HOP-92; HOP-92, Non-Small Cell Lung Cancer, NCI one dose)?
A: The inhibition at 10 µM was 0%.

Q: What about the inhibition at 10 µM (NCI/ADR-RES; NCI/ADR-RES, Ovarian Cancer, NCI one dose) of the same compound?
A: The inhibition at 10 µM was 0%.

Q: What about the inhibition at 10 µM (SF-295; SF-295, CNS Cancer, NCI one dose) of the same compound?
A: The inhibition at 10 µM was 0%.

Q: What about the inhibition at 10 µM (OVCAR-3; OVCAR-3, Ovarian Cancer, NCI one dose) of the same compound?
A: The inhibition at 10 µM was 0%.

Q: And the inhibition at 10 µM (SR; SR, Leukemia, NCI one dose)?
A: The inhibition at 10 µM was 0%.

Q: What about the inhibition at 10 µM (NCI-H23; NCI-H23, Non-Small Cell Lung Cancer, NCI one dose) of the same compound?
A: Its inhibition at 10 µM is 0%.

Q: What about the inhibition at 10 µM (U251; U251, CNS Cancer, NCI one dose) of the same compound?
A: Its inhibition at 10 µM is 1.83%.

Q: What about the inhibition at 10 µM (NCI-H460; NCI-H460, Non-Small Cell Lung Cancer, NCI one dose) of the same compound?
A: Its inhibition at 10 µM is 0%.

Q: And the inhibition at 10 µM (NCI-H226; NCI-H226, Non-Small Cell Lung Cancer, NCI one dose)?
A: Its inhibition at 10 µM is 0%.

Q: And the inhibition at 10 µM (SW-620; SW-620, Colon cancer, NCI one dose)?
A: The inhibition at 10 µM was 0%.

Q: What about the inhibition at 10 µM (SNB-19; SNB-19, CNS Cancer, NCI one dose) of the same compound?
A: The inhibition at 10 µM was 0.06%.

Q: What about the inhibition at 10 µM (NCI-H322M; NCI-H322M, Non-Small Cell Lung Cancer, NCI one dose) of the same compound?
A: The inhibition at 10 µM was 0%.

Q: What about the inhibition at 10 µM (SK-MEL-5; SK-MEL-5, Melanoma, NCI one dose) of the same compound?
A: Its inhibition at 10 µM is 1.68%.

Q: And the inhibition at 10 µM (ACHN; ACHN, Renal cancer, NCI one dose)?
A: Its inhibition at 10 µM is 0%.

Q: And the inhibition at 10 µM (786-0; 786-0, Renal cancer, NCI one dose)?
A: The inhibition at 10 µM was 0%.

Q: What about the inhibition at 10 µM (MDA-MB-468; MDA-MB-468, Breast cancer, NCI one dose) of the same compound?
A: The inhibition at 10 µM was 0%.

Q: And the inhibition at 10 µM (SF-539; SF-539, CNS Cancer, NCI one dose)?
A: The inhibition at 10 µM was 3.15%.

Q: And the inhibition at 10 µM (LOX IMVI; Melanoma, NCI one dose)?
A: The inhibition at 10 µM was 2.69%.

Q: What about the inhibition at 10 µM (HCC-2998; HCC-2998, Colon cancer, NCI one dose) of the same compound?
A: Its inhibition at 10 µM is 0%.
